Here are results for two compounds from publication PMC7758017 (Iranian Journal of Pharmaceutical Research : IJPR, 2020).

Data set [1] can be described thus: in vivo. Particulars: male, Wistar, rat.
Description: (§1) An analytical column (Waters Spherisorb S5 W (250 mm × 4.6 i.d.; 5 μm particle size)) with guard column (Waters Spherisorb S5 W (30 mm × 4.6 mm i.d.)) was used for the analysis. The mobile phase contained acetonitrile and 50 mM sodium dihydrogen phosphate (17:83; v/v). The pH was adjusted to 3.1 with phosphoric acid ([13]). The sample volume was 40 µL for plasma samples and 90 µL for brain-tissue samples. All chromatograms were obtained at a conditioned temperature (50 °C), and the flow rate was 1.3 mL/min ([13]).
(§2) Male adult Wistar rats (body weight 230 ± 30 g; Anlab Inc., Prague, Czech Republic) were used for pharmacokinetics study. The animals were kept under recommended conditions: standard laboratory food and tap water were available ad libitum. All experimental procedures and protocols were reviewed and approved by the Ethics Committee of the Faculty of Military Health Sciences, University of Defense, Hradec Kralove, Czech Republic. […] Blood samples were collected directly from the heart into heparinized 1.5 mL polythene tubes after 5, 15, 30, 45, 60, 120 and 240 min, and after 24 h (n = 6; six animals in each time interval). The samples were immediately centrifuged at 3000 ×g for 10 min (10 °C), and the plasma obtained was stored at −80 °C until analysis.
After perfusion, the skull was opened and the brain was checked visually and subsequently carefully removed; time intervals correspond with blood sampling (5, 15, 30, 45, 60, 120 and 240 min, and after 24 hours; n = 6; the same animals were used). All brains were stored at –80 °C until HPLC analysis ([15]).
Standard noncompartmental analysis was performed using Kinetica software, version 4.0 (InnaPhase Corporation, Thermo Fisher Scientific Inc., Waltham, MA, USA). Maximum concentration (Cmax) and the time to the maximum concentration (Tmax) were determined directly from the observed data. The area under the mean plasma concentration–time curve from zero up to infinity (AUCtotal) was determined as the sum of the AUC0–24 h and of the extrapolated part, i.e. the ratio of the concentration predicted at the time interval of 24 h and the terminal rate constant λz. The λz was estimated using linear regression of the log-transformed concentrations at interval from 45 min to 24 h plotted against time. The half-life was calculated as t1/2 = ln(2)/λz. Other statistical analysis was performed using GraphPad Prism, version 5.0 (GraphPad Software, San Diego, California, USA).
Brain tissues (whole brains) were mechanically crushed under liquid nitrogen. […] Eight-hundred microliter of supernatant was subjected to liquid-liquid extraction as previously described. All assessments were performed in triplicate.
Data set [2] can be described thus: in vivo. To be noted: male, Wistar, rat, im.
Description: as §1, §2
(§3) Standard noncompartmental analysis was performed using Kinetica software, version 4.0 (InnaPhase Corporation, Thermo Fisher Scientific Inc., Waltham, MA, USA). Maximum concentration (Cmax) and the time to the maximum concentration (Tmax) were determined directly from the observed data. The area under the mean plasma concentration–time curve from zero up to infinity (AUCtotal) was determined as the sum of the AUC0–24 h and of the extrapolated part, i.e. the ratio of the concentration predicted at the time interval of 24 h and the terminal rate constant λz. The λz was estimated using linear regression of the log-transformed concentrations at interval from 45 min to 24 h plotted against time. The half-life was calculated as t1/2 = ln(2)/λz. […]
Data set [3] relates to acetylcholinesterase (AChE). More on the design: method as in PMID 10641971. To be noted: long-lasting, pseudo-irreversible inhibitor; ref [10]; cited from earlier work.
Data set [4] can be described thus: Plasma pharmacokinetics after single i.m. injection in rats (HPLC-UV). Particulars: male, Wistar, rat, in vivo, im.
Description: as §1, §2, §3
For data set [5] the following is noted: human, 10 mg/day p.o., HPLC study, ref [7], cited from earlier work.

The structures appear in SMILES notation. Read-outs that look alike come from different tables or passages of the source.

As for `CCN(C)C(=O)Oc1cccc([C@H](C)N(C)C)c1` [Rivastigmine], in the data set “in vivo [1]”, the Kp at 0 min amounted to 0, the Kp at 5 min is 1.74, the Kp at 15 min came out at 1.48 and the Kp at 30 min turned out to be 1.7. In the data set “in vivo [1]”, the Kp at 45 min came to 1.15, the Kp at 60 min was 1.13, the Kp at 120 min came out at 0.176 and the Kp at 240 min came out at 0. In the data set “in vivo [1]”, this compound yielded a Kp at 24 h of 0, a concentration at 0 min of 0 ng/mL, a concentration at 5 min of 5.23 ± 0.76 ng/mL and a concentration at 15 min of 4.92 ± 0.62 ng/mL. In the data set “in vivo [1]”, this compound yielded a concentration at 30 min of 4.72 ± 0.51 ng/mL, a concentration at 45 min of 2.73 ± 0.32 ng/mL, a concentration at 60 min of 2.24 ± 0.22 ng/mL and a concentration at 120 min of 0.03 ± 0.02 ng/mL. In the data set “in vivo [1]”, this compound gave a concentration at 240 min of 0 ng/mL and a concentration at 24 h of 0 ng/mL. Moreover, in the data set “in vivo [2]”, the CL/F (as a rule, clearance divided by bioavailability, as obtained after extravascular dosing) was 690 ± 30 mL/min/kg and the MRT (in general, a mean duration of stay, worked out from the concentration-time curve) was 43.4 min. Besides, in data set [3], the “duration of AChE inhibition” value is recorded as “up to 10 h”. For the same compound, the Vd/F (as a rule, the apparent distribution volume after extravascular dosing) in data set [4] worked out at 19.8 ± 3.87 L/kg.

Consider `COc1cc2c(cc1OC)C(=O)C(CC1CCN(Cc3ccccc3)CC1)C2` (stereo not drawn) [Donepezil], for which the CSF concentration is recorded as 5.2 ng/mL in data set [5] (12 h after application) and 7.5 ng/mL in data set [5] (after 24 h).
